According to patent US11214803B2, “Modulators of YAP1 expression” (Ionis Pharmaceuticals, Inc., priority 2019, dated 2022):
Strand notation (5' to 3'): a small letter for the sugar, then the base; units joined by * are phosphorothioate-linked, units joined directly phosphodiester-linked; [ ] holds rarer units or linkages, { } end groups; capitals alone tell only the bases. k = constrained ethyl (cEt); [5mC] = 5-methylcytosine; d = 2'-deoxy (DNA)

The substances below were run on Yap1 mRNA (assay: Antisense inhibition of human Yap1 in A-431 cells by cEt gapmers, single dose (Example 1, RTS4814)). Conditions: A-431 cells, 5,000 cells per well, free uptake, 2,000 nM modified oligonucleotide, approx. 48 hours, RTS4814, normalized to RIBOGREEN; Table 3.
Assay type: cell-based
Outline: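 Free uptake of 2,000 nM 3-10-3 cEt gapmer (16-mer, full phosphorothioate, 5-methylcytosines) in A-431 cells for ~48 h. Yap1 mRNA quantified by qRT-PCR with set RTS4814, normalized to total RNA (RiboGreen), and expressed as % of untreated control; asterisked values target the amplicon region.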
“715525 (kT*kT*kA*d[5mC]*dT*dT*dT*dA*dA*dG*dA*dA*dG*kT*kA*kT; antisense) [Compound 715525]” was tested, and the “YAP1 (% UTC)” value was 100 % UTC. In the case of “715528 (kA*kA*kA*d[5mC]*d[5mC]*dT*dG*dA*dT*d[5mC]*d[5mC]*dT*dT*kT*kG*kA; antisense) [Compound 715528]”, the “YAP1 (% UTC)” value was 98 % UTC. “715531 (kA*k[5mC]*kA*dA*d[5mC]*d[5mC]*dT*dG*dG*dT*dT*dT*dG*kT*kT*kT; antisense) [Compound 715531]” was tested, and the “YAP1 (% UTC)” value was 94 % UTC. “715534 (kT*k[5mC]*k[5mC]*d[5mC]*d[5mC]*dA*dG*dG*dT*d[5mC]*dA*dG*d[5mC]*kA*kT*kG; antisense) [Compound 715534]” was tested, and the “YAP1 (% UTC)” value was 112 % UTC. In the case of “715537 (kA*k[5mC]*kT*dT*dG*dG*d[5mC]*dA*d[5mC]*d[5mC]*dA*dA*dA*kA*kG*k[5mC]; antisense) [Compound 715537]”, the “YAP1 (% UTC)” value was 122 % UTC. “715540 (kT*kG*kA*dA*dG*dA*dA*d[5mC]*dT*dA*dT*dT*dT*k[5mC]*k[5mC]*kT; antisense) [Compound 715540]” was tested, and the “YAP1 (% UTC)” value was 82 % UTC. In the case of “715543 (kA*k[5mC]*kT*dA*d[5mC]*dT*dT*dG*dA*dA*dG*dA*dA*k[5mC]*kT*kA; antisense) [Compound 715543]”, the “YAP1 (% UTC)” value was 72 % UTC. In the case of “715546 (kT*kG*kA*d[5mC]*d[5mC]*dA*dA*d[5mC]*dT*dA*d[5mC]*dT*dT*kG*kA*kA; antisense) [Compound 715546]”, the “YAP1 (% UTC)” value was 59 % UTC. In the case of “715549 (kG*kA*kA*dG*dT*dT*dG*dT*dT*dG*dA*d[5mC]*d[5mC]*kA*kA*k[5mC]; antisense) [Compound 715549]”, the “YAP1 (% UTC)” value was 66 % UTC. In the case of “715552 (kA*kA*kA*dT*dA*dG*dG*dA*dA*dG*dT*dT*dG*kT*kT*kG; antisense) [Compound 715552]”, the “YAP1 (% UTC)” value was 86 % UTC. For “715555 (kG*kT*kT*dA*dT*dT*d[5mC]*dA*dG*d[5mC]*dA*dG*d[5mC]*kT*kT*kA; antisense) [Compound 715555]”, the “YAP1 (% UTC)” value was 21 % UTC. For “715558 (k[5mC]*kA*kG*dG*dA*dA*dG*dT*dT*dA*dT*dT*d[5mC]*kA*kG*k[5mC]; antisense) [Compound 715558]”, the “YAP1 (% UTC)” value was 37 % UTC. “715561 (k[5mC]*kA*k[5mC]*dA*dA*d[5mC]*dT*d[5mC]*dA*dG*dA*d[5mC]*dA*kG*kG*kG; antisense) [Compound 715561]” was tested, and the “YAP1 (% UTC)” value was 69 % UTC. “715564 (k[5mC]*kA*kA*dG*d[5mC]*dA*d[5mC]*dA*d[5mC]*dA*dA*d[5mC]*dT*k[5mC]*kA*kG; antisense) [Compound 715564]” was tested, and the “YAP1 (% UTC)” value was 75 % UTC. In the case of “715567 (kG*kG*kT*dA*dG*dG*dA*dT*dA*dA*dA*dT*dG*kA*kA*kT; antisense) [Compound 715567]”, the “YAP1 (% UTC)” value was 99 % UTC. With “715570 (kG*k[5mC]*k[5mC]*dA*dA*dA*dG*dG*dT*dA*dG*dG*dA*kT*kA*kA; antisense) [Compound 715570]” the “YAP1 (% UTC)” value was 79 % UTC.

Same assay, conditions: Table 1; A-431 cells, free uptake, 2,000 nM, approximately 48 hours, RTS4814; Yap1 mRNA relative to untreated control cells
In the case of “715523 (kA*kT*k[5mC]*dA*dG*dT*dA*d[5mC]*dT*dG*dG*d[5mC]*d[5mC]*kT*kA*kT; antisense) [Compound 715523]”, the “YAP1 (% UTC)” value was 32 % UTC. For “715526 (kA*k[5mC]*kT*dT*dA*d[5mC]*dT*dT*dT*dA*dA*dG*dA*kA*kG*kT; antisense) [Compound 715526]”, the “YAP1 (% UTC)” value was 112 % UTC. “715529 (kT*kG*kA*dA*dA*d[5mC]*d[5mC]*dT*dG*dA*dT*d[5mC]*d[5mC]*kT*kT*kT; antisense) [Compound 715529]” was tested, and the “YAP1 (% UTC)” value was 148 % UTC. In the case of “715532 (kT*kA*kA*d[5mC]*dA*dA*d[5mC]*d[5mC]*dT*dG*dG*dT*dT*kT*kG*kT; antisense) [Compound 715532]”, the “YAP1 (% UTC)” value was 91 % UTC. For “715535 (k[5mC]*kT*kA*dT*dT*dA*dA*dG*d[5mC]*dT*dG*dT*dT*kT*kA*kA; antisense) [Compound 715535]”, the “YAP1 (% UTC)” value was 91 % UTC. “715538 (k[5mC]*kT*kT*dT*dG*dT*dA*dA*d[5mC]*dT*dT*dA*dA*kA*kA*kG; antisense) [Compound 715538]” was tested, and the “YAP1 (% UTC)” value was 110 % UTC. For “715541 (k[5mC]*kT*kT*dG*dA*dA*dG*dA*dA*d[5mC]*dT*dA*dT*kT*kT*k[5mC]; antisense) [Compound 715541]”, the “YAP1 (% UTC)” value was 105 % UTC. With “715544 (k[5mC]*kA*kA*d[5mC]*dT*dA*d[5mC]*dT*dT*dG*dA*dA*dG*kA*kA*k[5mC]; antisense) [Compound 715544]” the “YAP1 (% UTC)” value was 128 % UTC. In the case of “715547 (kG*kT*kT*dG*dA*d[5mC]*d[5mC]*dA*dA*d[5mC]*dT*dA*d[5mC]*kT*kT*kG; antisense) [Compound 715547]”, the “YAP1 (% UTC)” value was 98 % UTC. With “715550 (kA*kG*kG*dA*dA*dG*dT*dT*dG*dT*dT*dG*dA*k[5mC]*k[5mC]*kA; antisense) [Compound 715550]” the “YAP1 (% UTC)” value was 70 % UTC. With “715553 (kA*kG*kA*dA*dA*dT*dA*dG*dG*dA*dA*dG*dT*kT*kG*kT; antisense) [Compound 715553]” the “YAP1 (% UTC)” value was 90 % UTC. With “715556 (kA*kA*kG*dT*dT*dA*dT*dT*d[5mC]*dA*dG*d[5mC]*dA*kG*k[5mC]*kT; antisense) [Compound 715556]” the “YAP1 (% UTC)” value was 63 % UTC. “715559 (k[5mC]*kT*kG*d[5mC]*d[5mC]*dA*dT*dT*dT*dA*dA*dG*dA*kA*kA*kT; antisense) [Compound 715559]” was tested, and the “YAP1 (% UTC)” value was 114 % UTC. “715562 (k[5mC]*kA*k[5mC]*dA*d[5mC]*dA*dA*d[5mC]*dT*d[5mC]*dA*dG*dA*k[5mC]*kA*kG; antisense) [Compound 715562]” was tested, and the “YAP1 (% UTC)” value was 77 % UTC. In the case of “715565 (kG*kG*kA*dT*dA*dA*dA*dT*dG*dA*dA*dT*dT*kA*kT*kA; antisense) [Compound 715565]”, the “YAP1 (% UTC)” value was 115 % UTC. In the case of “715568 (kA*kA*kG*dG*dT*dA*dG*dG*dA*dT*dA*dA*dA*kT*kG*kA; antisense) [Compound 715568]”, the “YAP1 (% UTC)” value was 116 % UTC. With “715571 (kA*kA*kA*dA*dT*d[5mC]*d[5mC]*dT*dG*d[5mC]*d[5mC]*dA*dA*k[5mC]*kA*kT; antisense) [Compound 715571]” the “YAP1 (% UTC)” value was 127 % UTC.

Same assay, conditions: Table 2; A-431 cells, free uptake, 2,000 nM, approximately 48 hours, RTS4814; Yap1 mRNA relative to untreated control cells
In the case of “715524 (kA*k[5mC]*kT*dT*dT*dA*dA*dG*dA*dA*dG*dT*dA*kT*k[5mC]*kT; antisense) [Compound 715524]”, the “YAP1 (% UTC)” value was 93 % UTC. “715527 (kT*k[5mC]*kA*d[5mC]*dT*dT*dA*d[5mC]*dT*dT*dT*dA*dA*kG*kA*kA; antisense) [Compound 715527]” was tested, and the “YAP1 (% UTC)” value was 111 % UTC. “715530 (kA*kA*k[5mC]*d[5mC]*dT*dG*dG*dT*dT*dT*dG*dT*dT*kT*k[5mC]*k[5mC]; antisense) [Compound 715530]” was tested, and the “YAP1 (% UTC)” value was 61 % UTC. In the case of “715533 (k[5mC]*k[5mC]*kT*dA*dA*d[5mC]*dA*dA*d[5mC]*d[5mC]*dT*dG*dG*kT*kT*kT; antisense) [Compound 715533]”, the “YAP1 (% UTC)” value was 97 % UTC. For “715536 (kG*kG*k[5mC]*dT*dA*dT*dT*dA*dA*dG*d[5mC]*dT*dG*kT*kT*kT; antisense) [Compound 715536]”, the “YAP1 (% UTC)” value was 137 % UTC. In the case of “715539 (kA*kG*kA*dT*d[5mC]*dT*d[5mC]*dA*d[5mC]*dT*dG*dA*d[5mC]*k[5mC]*kT*kA; antisense) [Compound 715539]”, the “YAP1 (% UTC)” value was 102 % UTC. “715542 (kT*kA*k[5mC]*dT*dT*dG*dA*dA*dG*dA*dA*d[5mC]*dT*kA*kT*kT; antisense) [Compound 715542]” was tested, and the “YAP1 (% UTC)” value was 120 % UTC. In the case of “715545 (kA*k[5mC]*k[5mC]*dA*dA*d[5mC]*dT*dA*d[5mC]*dT*dT*dG*dA*kA*kG*kA; antisense) [Compound 715545]”, the “YAP1 (% UTC)” value was 87 % UTC. In the case of “715548 (kA*kG*kT*dT*dG*dT*dT*dG*dA*d[5mC]*d[5mC]*dA*dA*k[5mC]*kT*kA; antisense) [Compound 715548]”, the “YAP1 (% UTC)” value was 117 % UTC. “715551 (kA*kT*kA*dG*dG*dA*dA*dG*dT*dT*dG*dT*dT*kG*kA*k[5mC]; antisense) [Compound 715551]” was tested, and the “YAP1 (% UTC)” value was 82 % UTC. In the case of “715554 (kT*kA*kT*dT*d[5mC]*dA*dG*d[5mC]*dA*dG*d[5mC]*dT*dT*kA*kT*kA; antisense) [Compound 715554]”, the “YAP1 (% UTC)” value was 93 % UTC. With “715557 (kG*kG*kA*dA*dG*dT*dT*dA*dT*dT*d[5mC]*dA*dG*k[5mC]*kA*kG; antisense) [Compound 715557]” the “YAP1 (% UTC)” value was 46 % UTC. With “715560 (k[5mC]*k[5mC]*k[5mC]*dT*dT*dT*dA*d[5mC]*dA*dA*dA*dA*dA*kT*kA*kG; antisense) [Compound 715560]” the “YAP1 (% UTC)” value was 98 % UTC. With “715563 (kA*kG*k[5mC]*dA*d[5mC]*dA*d[5mC]*dA*dA*d[5mC]*dT*d[5mC]*dA*kG*kA*k[5mC]; antisense) [Compound 715563]” the “YAP1 (% UTC)” value was 86 % UTC. For “715566 (kT*kA*kG*dG*dA*dT*dA*dA*dA*dT*dG*dA*dA*kT*kT*kA; antisense) [Compound 715566]”, the “YAP1 (% UTC)” value was 94 % UTC. In the case of “715569 (k[5mC]*kA*kA*dA*dG*dG*dT*dA*dG*dG*dA*dT*dA*kA*kA*kT; antisense) [Compound 715569]”, the “YAP1 (% UTC)” value was 122 % UTC. With “715572 (kT*k[5mC]*kA*dG*dA*dG*dA*dA*dG*dA*dA*dA*dG*kG*kT*kA; antisense) [Compound 715572]” the “YAP1 (% UTC)” value was 97 % UTC.
